Experiments:
Leptosphaeria nodorum = assay: Activity against Septoria nodorum blotch of wheat caused by Leptosphaeria nodorum
Method: (§1) The mixture was then made up with water to 100 ml.
The next day, the pots were inoculated with an aqueous spore suspension of Leptosphaeria nodorum (syn. Stagonospora nodorum, Septoria nodorum). The plants were then placed in a chamber at 20° C. and maximum atmospheric humidity.

Alternaria solani = assay: Persistency against early blight on tomatoes caused by Alternaria solani, 5 day protective treatment; conditions: tomato
Method: as §1
To test for persistency, the leaves were infected with an aqueous spore suspension of Alternaria solani in a 2% strength biomalt solution having a density of 0.17×10^6 spores/ml only after 5 days. The plants were then placed in a water-vapor-saturated chamber at temperatures between 20 and 22° C.
Evaluation was carried out analogously to Example 1.

O=C(Nc1ccccc1-c1ccc(Cl)cc1)c1cccnc1Cl [boscalid, 2-chloro-N-(4′-chlorobiphenyl-2-yl)nicotinamide]
Efficacy in % of the untrated control (Leptosphaeria nodorum; 1.6 ppm in spray liquor): 0%
Efficacy in % of the untrated control (Leptosphaeria nodorum; 3.1 ppm in spray liquor): 11%
Efficacy in % of the untrated control (Leptosphaeria nodorum; 12.5 ppm in spray liquor): 33%
Efficacy in % of the untrated control (Alternaria solani; 6.25 ppm in spray liquor): 0%

CC1(C)CCC(Cc2ccc(Cl)cc2)C1(O)Cn1cncn1 (stereo not drawn) [metconazole, 5-(4-chlorobenzyl)-2,2-dimethyl-1-[1,2,4]triazol-1-ylmethylcyclopentanol]
Efficacy in % of the untrated control (Leptosphaeria nodorum; 0.4 ppm in spray liquor): 0%
Efficacy in % of the untrated control (Leptosphaeria nodorum; 0.8 ppm in spray liquor): 0%
Efficacy in % of the untrated control (Leptosphaeria nodorum; 1.6 ppm in spray liquor): 56%

Fc1ccc([C@]2(Cn3cncn3)O[C@H]2c2ccccc2Cl)cc1 (racemic) [epoxiconazole, (2RS,3SR)-1-[3-(2-chlorophenyl)-2,3-epoxy-2-(4-fluorophenyl)propyl]-1H-1,2,4-triazole]
Efficacy in % of the untrated control (Leptosphaeria nodorum; 0.4 ppm in spray liquor): 0%
Efficacy in % of the untrated control (Leptosphaeria nodorum; 0.8 ppm in spray liquor): 0%
Efficacy in % of the untrated control (Leptosphaeria nodorum; 1.6 ppm in spray liquor): 33%
Efficacy in % of the untrated control (Alternaria solani; 0.8 ppm in spray liquor): 0%
Efficacy in % of the untrated control (Alternaria solani; 1.6 ppm in spray liquor): 0%
Efficacy in % of the untrated control (Alternaria solani; 3.1 ppm in spray liquor): 0%
Efficacy in % of the untrated control (Alternaria solani; 6.25 ppm in spray liquor): 0%
Efficacy in % of the untrated control (Alternaria solani; 25 ppm in spray liquor): 0%

Source: US20110136665A1
